In patent US11547694B2, “CXCR4/CXCR7 blockade and treatment of human papilloma virus-associated disease” (priority 2017, dated 2023):

Tests used:
TC-1 tumor cells = format: in vivo; conditions: C57BL/6 mice with s.c. TC-1 tumors
From the text: Methods. C57BL/6 mice were inoculated with 1×10^5 TC-1 tumor cells subcutaneously into the right flank. When tumors reached approximately 60-70 mm^3 in size, various treatments were initiated. The treatment groups (N=5) consisted of no treatment, administration of an isotype control IgG antibody (clone 2A3, BioXcell), anti-PD-1 monotherapy (clone 29F.1A12, BioXcell), AMD3100 monotherapy (catalog AB120718, AbCam), combination of AMD3100 and anti-PD-1 and combination of AMD3100, anti-PD-1, and an HPV vaccine (See, FIGS. 1, 2, 3, and 4).
The treatment regimen consisted of administration of 0.5 mg/mouse of anti-PD-1 antibody (clone 29F.1A12, BioXcell) or isotype control antibody (clone 2A3, BioXcell) every 5 days for a total of 3 treatments. Prior to each dose of antibody, the mice were treated with 3 mg/kg of AMD3100 (catalog AB120718, AbCam). In addition, a subset of mice were treated with a 1:1 ratio of 20 mcg of HPV E7 peptide vaccine and 20 mcg of poly I:C adjuvant in a total volume of 20 μl, which was administered intratumorally. The tumors were measured twice a week with calipers. When the tumor measured over 2 centimeters in any one direction, the animal was sacrificed according to IACUC policy.

[1] = tested on: ovarian preclinical cancer model
CXCR4 = CXCR4 (Homo sapiens, UniProt P61073); conditions: cited from earlier work
mature leukocytes = conditions: administration of AMD3100; cited from earlier work
[2] = 0.01-0.02 mg/kg subcutaneously twice daily for 6 months; phase I clinical trial (Blood 2014; 123(15):2308-16); cited from earlier work

Chain of CXCR4 (P61073 whole entry): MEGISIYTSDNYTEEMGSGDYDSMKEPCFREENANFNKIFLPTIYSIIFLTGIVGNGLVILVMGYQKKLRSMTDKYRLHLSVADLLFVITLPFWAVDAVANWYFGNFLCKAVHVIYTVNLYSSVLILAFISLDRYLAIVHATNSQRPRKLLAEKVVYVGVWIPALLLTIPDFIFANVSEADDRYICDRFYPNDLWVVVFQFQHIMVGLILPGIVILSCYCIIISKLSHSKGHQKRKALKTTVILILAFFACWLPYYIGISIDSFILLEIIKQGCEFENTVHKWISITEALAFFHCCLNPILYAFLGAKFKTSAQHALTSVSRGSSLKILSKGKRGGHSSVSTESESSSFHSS

## c1cc(CN2CCCNCCNCCCNCC2)ccc1CN1CCCNCCNCCCNCC1 [AMD3100]
TC-1 tumor cells; AMD3100 3 mg/kg before each antibody dose, anti-PD-1 0.5 mg/mouse every 5 days x3, HPV E7 peptide vaccine intratumorally, caliper tumor volume
  anti-tumor effect (tumor growth, FIG. 1, FIG. 3): enhanced anti-tumor effect
TC-1 tumor cells; same regimen, Log-rank test
  survival (FIG. 2, FIG. 4): prolonged survival
[1]
  CD8+ T cells: increase
  Treg infiltration: decrease
  anti-tumor effect: enhanced anti-tumor effect
CXCR4
  antagonism of CXCR4: highly specific antagonist of CXCR4
Mature leukocytes
  mobilization of leukocytes into the blood: rapidly mobilize all major subsets of mature leukocytes into the blood
[2]
  safety of long-term, low-dose treatment: demonstrated the safety
